The target of test [1] is T1, isolated kinase domain of the human FLT3 receptor (a.a. 571-993) (Homo sapiens, UniProt P36888).
T1 construct: human FLT3 receptor (a.a. 571-993)
T1 sequence (P36888 571-993): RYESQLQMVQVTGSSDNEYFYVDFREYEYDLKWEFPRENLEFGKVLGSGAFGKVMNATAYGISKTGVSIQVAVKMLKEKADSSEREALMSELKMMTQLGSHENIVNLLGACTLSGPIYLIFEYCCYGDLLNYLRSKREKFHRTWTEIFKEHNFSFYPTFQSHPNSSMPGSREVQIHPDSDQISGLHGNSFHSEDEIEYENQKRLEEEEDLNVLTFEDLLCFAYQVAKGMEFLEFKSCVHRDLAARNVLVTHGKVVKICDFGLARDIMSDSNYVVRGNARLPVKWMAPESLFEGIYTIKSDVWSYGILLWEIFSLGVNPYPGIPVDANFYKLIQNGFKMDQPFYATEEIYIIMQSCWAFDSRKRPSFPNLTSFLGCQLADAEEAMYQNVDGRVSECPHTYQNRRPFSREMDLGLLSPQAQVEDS
The test can be described thus: FLT3 fluorescence polarization kinase assay. Format: biochemical. An excerpt:
The FLT3 FP assay utilizes the fluorescein-labeled phosphopeptide and the anti-phosphotyrosine antibody included in the Panvera Phospho-Tyrosine Kinase Kit (Green) supplied by Invitrogen. When FLT3 phosphorylates polyGlu4Tyr, the fluorescein-labeled phosphopeptide is displaced from the anti-phosphotyrosine antibody by the phosphorylated poly Glu4Tyr, thus decreasing the FP value. […] The kinase reaction is stopped with the addition of EDTA. The fluorescein-labeled phosphopeptide and the anti-phosphotyrosine antibody are added and incubated for 30 minutes at room temperature.
All data points are an average of triplicate samples. Inhibition and IC50 data analysis was done with GraphPad Prism using a non-linear regression fit with a multiparamater, sigmoidal dose-response (variable slope) equation.

For test [2], the system named is MV4-11 cells. Put plainly: Inhibition of MV4-11 cell proliferation (CellTiterGlo, 72 h). It is filed as cell-based. The note with it: Homo sapiens; 72 h growth inhibition. In short, it runs like this: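 MV4-11 (FLT3-ITD) cells, 10,000/well in RPMI/10% FBS with 1 ng/ml GM-CSF, treated 72 h at 37 °C; some runs in 1:1 medium/human plasma. Growth read as ATP luminescence; 100% inhibition = Day 0 RLU, 0% = DMSO at Day 3. IC50 from sigmoidal variable-slope fit of triplicates.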
In general terms: In ATP-based viability assays light output follows the ATP content of the culture.

In the case of `COc1cc2ncnc(N3CCC(OC(=O)Nc4ccc(C(C)C)cc4)CC3)c2cc1OC` [Compound 1, (4-Isopropyl-phenyl)-carbamic acid 1-(6,7-dimethoxy-quinazolin-4-yl)-piperidin-4-yl ester], the IC50 (in general, the point on the concentration scale where inhibition reaches its midpoint) in test [1] came out at 6 nM; in test [2] it was 181 nM.
The matching figures for `COc1cc2ncnc(N3CCC(OC(=O)Nc4ccc(C(C)C)cc4)C3)c2cc1OC` (stereo not shown) [Compound 2, (4-Isopropyl-phenyl)-carbamic acid 1-(6,7-dimethoxy-quinazolin-4-yl)-pyrrolidin-3-yl ester]: 7 nM and 248 nM.
On the same counts, the results for `COc1cc2ncnc(N3CCC(OC(=O)Nc4ccc(OC(C)C)cc4)CC3)c2cc1OC` [Compound 3, (4-Isopropoxy-phenyl)-carbamic acid 1-(6,7-dimethoxy-quinazolin-4-yl)-piperidin-4-yl ester] are 8 nM and 467 nM.
On the same counts, the results for `COc1cc2ncnc(N3CCCC(COC(=O)Nc4ccc(C(C)C)cc4)C3)c2cc1OC` (stereo not shown) [Compound 4] are 11 nM and 86 nM.
In the case of `COc1cc2ncnc(N3CCC(CC(=O)Nc4ccc(C(C)C)cc4)CC3)c2cc1OC` [Compound 5, 2-[1-(6,7-Dimethoxy-quinazolin-4-yl)-piperidin-4-yl]-N-(4-isopropyl-phenyl)-acetamide], the figures for the IC50 in test [1] and in test [2] were 12 nM and 7 nM, respectively.
On the same counts, the results for `COc1cc2ncnc(N3CCC(CC(=O)Nc4ccc(C(C)C)cc4)C3)c2cc1OC` (stereo not shown) [Compound 6, 2-[11-(6,7-Dimethoxy-quinazolin-4-yl)-pyrrolidin-3-yl]-N-(4-isopropyl-phenyl)-acetamide] are 14 nM and 8 nM.
The matching figures for `COc1cc2ncnc(N3CCC(NC(=O)Nc4ccc(C(C)C)cc4)C3)c2cc1OC` (stereo not shown) [Compound 7, 1-[1-(6,7-Dimethoxy-quinazolin-4-yl)-pyrrolidin-3-yl]-3-(4-isopropyl-phenyl)-urea]: 16 nM and 909 nM.
For the compound `COc1cc2ncnc(N3CCC(NC(=O)Nc4ccc(OC(C)C)cc4)C3)c2cc1OC` (stereo not shown) [Compound 8, 1-[1-(6,7-Dimethoxy-quinazolin-4-yl)-pyrrolidin-3-yl]-3-(4-isopropoxy-phenyl)-urea], the IC50 in test [1] was 23 nM; in test [2] it was 1880 nM.
On the same counts, the results for `COc1cc2ncnc(N3CCCC3COC(=O)Nc3ccc(C(C)C)cc3)c2cc1OC` (stereo not shown) [Compound 9] are 25 nM and 196 nM.
On the same counts, the results for `COc1cc2ncnc(N3CCC(OC(=O)Nc4ccc(OC5CCC5)nc4)C3)c2cc1OC` (stereo not shown) [Compound 12, (6-Cyclobutoxy-pyridin-3-yl)-carbamic acid 1-(6,7-dimethoxy-quinazolin-4-yl)-pyrrolidin-3-yl ester] are 35 nM and 64 nM.
The matching figures for `COc1cc2ncnc(N3CCC(C(=O)Nc4ccc(C(C)C)cc4)CC3)c2cc1OC` [Compound 13, 1-(6,7-Dimethoxy-quinazolin-4-yl)-piperidine-4-carboxylic acid (4-isopropyl-phenyl)-amide]: 37 nM and 855 nM.
Take `CC(C)c1ccc(NC(=O)OC2CCN(c3ncnc4ccc(C#CCO)cc34)C2)cc1` (stereo not shown) [Compound 14, (4-Isopropyl-phenyl)-carbamic acid 1-[6-(3-hydroxy-prop-1-ynyl)-quinazolin-4-yl]-pyrrolidin-3-yl ester]: the IC50 in test [1] was 37 nM; in test [2] it was 136 nM.
On the same counts, the results for `COc1cc2ncnc(N3CCC(OC(=O)Nc4ccc(OC(C)C)cc4)C3)c2cc1OC` (stereo not shown) [Compound 15, (4-Isopropoxy-phenyl)-carbamic acid 1-(6,7-dimethoxy-quinazolin-4-yl)-pyrrolidin-3-yl ester] are 42 nM and 866 nM.
On the same counts, the results for `CC(C)c1ccc(NC(=O)NC2CCN(c3ncnc4ccccc34)C2)cc1` (stereo not shown) [Compound 16, 1-(4-Isopropyl-phenyl)-3-(1-quinazolin-4-yl-pyrrolidin-3-yl)urea] are 45 nM and 278 nM.
As to `CCN(CC)CC#Cc1ccc2ncnc(N3CCC(OC(=O)Nc4ccc(C(C)C)cc4)C3)c2c1` (stereo not shown) [Compound 17, (4-Isopropyl-phenyl)-3-carbamic acid 1-[6-(3-diethylamino-prop-1-ynyl)-quinazolin-4-yl]-pyrrolidin-3-yl ester], the 50% inhibitory concentration (IC50) in test [1] is 63 nM; in test [2] it was 122 nM.
The matching figures for `COc1cc2ncnc(N3CCC(CNC(=O)Nc4ccc(C(C)C)cc4)CC3)c2cc1OC` [Compound 18, 1-[1-(6,7-Dimethoxy-quinazolin-4-yl)-piperidin-4-ylmethyl]-3-(4-isopropyl-phenyl)-urea]: 66 nM and 1300 nM.
In the case of `COc1cc2ncnc(N3CCC(N(C)C(=O)Nc4ccc(C(C)C)cc4)C3)c2cc1OC` (stereo not shown) [Compound 19, 1-[1-(6,7-Dimethoxy-quinazolin-4-yl)-pyrrolidin-3-yl]-3-(4-isopropyl-phenyl)-1-methyl-urea], the IC50 in test [1] is 68 nM; in test [2] it was 1380 nM.
On the same counts, the results for `CC(C)c1ccc(NC(=O)OC2CCN(c3ncnc4ccc(I)cc34)C2)cc1` (stereo not shown) [Compound 20, (4-Isopropyl-phenyl)-carbamic acid 1-(6-iodo-quinazolin-4-yl)-pyrrolidin-3-yl ester] are 96 nM and 262 nM.
The matching figures for `COc1cc2ncnc(N3CCC(NC(=O)Cc4ccc(C(C)C)cc4)CC3)c2cc1OC` [Compound 21, N-[1-(6,7-Dimethoxy-quinazolin-4-yl)-piperidin-4-yl]-2-(4-isopropyl-phenyl)-acetamide]: 150 nM and 78 nM.
Turning to `COc1cc2ncnc(N3CCC(C(=O)Nc4ccc(OC(C)C)cc4)CC3)c2cc1OC` [Compound 23, 1-(6,7-Dimethoxy-quinazolin-4-yl)-piperidine-4-carboxylic acid (4-isopropoxy-phenyl)-amide], the results for the IC50 in test [1] and in test [2] were 185 nM and 1980 nM, respectively.
The matching figures for `COc1cc2ncc(C#N)c(N3CCC(NC(=O)Nc4ccc(C(C)C)cc4)C3)c2cc1OC` (stereo not shown) [Compound 26, 1-[1-(3-Cyano-6,7-dimethoxy-quinolin-4-yl)-pyrrolidin-3-yl]-3-(4-isopropyl-phenyl)-urea]: 433 nM and 1900 nM.
With `COc1cc2ncnc(N3CCCC(NC(=O)Nc4ccc(C(C)C)cc4)C3)c2cc1OC` (stereo not shown) [Compound 28, 1-[1-(6,7-Dimethoxy-quinazolin-4-yl)-piperidin-3-yl]-3-(4-isopropyl-phenyl)-urea], the values for the IC50 in test [1] and in test [2] were 510 nM and 1500 nM, respectively.
As to `COc1cc2ncc(C#N)c(N3CCC(NC(=O)Nc4ccc(OC(C)C)cc4)C3)c2cc1OC` (stereo not shown) [Compound 29, 1-[1-(3-Cyano-6,7-dimethoxy-quinolin-4-yl)-pyrrolidin-3-yl]-3-(4-isopropoxy-phenyl)-urea], the figures for the IC50 in test [1] and in test [2] were 531 nM and 1700 nM, respectively.
The matching figures for `COc1cc2ncnc(N3CCCC(OC(=O)Nc4ccc(C(C)C)cc4)C3)c2cc1OC` (stereo not shown) [Compound 31, (4-Isopropyl-phenyl)-carbamic acid 1-[1-(6,7-dimethoxy-quinazolin-4-yl)-piperidin-3-yl]ester]: 670 nM and 1700 nM.
The matching figures for `COc1cc2ncc(C#N)c(N3CCC(OC(=O)Nc4ccc(OC(C)C)cc4)C3)c2cc1OC` (stereo not shown) [Compound 32, (4-Isopropoxy-phenyl)-carbamic acid 1-(3-cyano-6,7-dimethoxy-quinolin-4-yl)-pyrrolidin-3-yl ester]: 868 nM and 1400 nM.
The matching figures for `COc1cc2ncnc(N3CCCCC3COC(=O)Nc3ccc(C(C)C)cc3)c2cc1OC` (stereo not shown) [Compound 33, (4-Isopropyl-phenyl)-carbamic acid 1-(6,7-dimethoxy-quinazolin-4-yl)-piperidin-2-ylmethyl ester]: 1000 nM and 343 nM.
For the compound `COc1cc2ncnc(N3CCC(NC(=O)Cc4ccc(C(C)C)cc4)C3)c2cc1OC` (stereo not shown) [Compound 35, N-[1-(6,7-Dimethoxy-quinazolin-4-yl)-pyrrolidin-3-yl]-2-(4-isopropyl-phenyl)-acetamide], the IC50 was 1300 nM in test [1] and 1900 nM in test [2].
On the same counts, the results for `COc1cc2ncnc(N3CCC(N(C)C(=O)Nc4ccc(OC(C)C)cc4)C3)c2cc1OC` (stereo not shown) [Compound 36, 1-[1-(6,7-Dimethoxy-quinazolin-4-yl)-pyrrolidin-3-yl]-3-(4-isopropoxy-phenyl)-1-methyl-urea] are 1680 nM and 3190 nM.
The matching figures for `COc1cc2ncc(C#N)c(N3CCC(OC(=O)Nc4ccc(C(C)C)cc4)C3)c2cc1OC` (stereo not shown) [Compound 37, (4-Isopropyl-phenyl)-carbamic acid 1-(3-cyano-6,7-dimethoxy-quinolin-4-yl)-pyrrolidin-3-yl ester]: 2140 nM and 1500 nM.
